The record followed here is ChEMBL document CHEMBL4825680, “Structure-based discovery of potent and selective small-molecule inhibitors targeting signal transducer and activator of transcription 3 (STAT3)” (Eur J Med Chem, 2021).

One may read the IC50 as the concentration at which inhibition is half-maximal. Read a high IC50 as a need for much substance.

What all share (type): functional, cell-based
Experiment [1] deals with MDA-MB-231. As to the kind of experiment: Antiproliferative activity against human MDA-MB-231 cells.
For experiment [2], the system named is A549. Kind of experiment: Antiproliferative activity against human A549 cells.
Experiment [3] has as its system MGC-803. As to the kind of experiment: Antiproliferative activity against human MGC-803 cells.

`COc1ccc2c(C(=O)Nc3ccc(Cl)cc3)cc(-c3ccccc3)nc2c1`: the results for the IC50 in experiment [1], in experiment [2] and in experiment [3] were over 100 µM, over 100 µM and 50.4 µM, respectively.
For `COc1ccc2c(C(=O)Nc3ccc(-c4cccnc4)cc3)cc(-c3ccccc3)nc2c1`, the figures for the IC50 in experiment [1], in experiment [2] and in experiment [3] were over 100 µM, over 100 µM and 64.8 µM, respectively.
As for `COc1ccc(NC(=O)c2cc(-c3ccccc3)nc3cc(OC)ccc23)cc1`, the IC50 in experiment [1], in experiment [2] and in experiment [3] was over 100 µM throughout.
Take `Cc1ccc2nc(-c3ccc(C#N)cc3)c(CC(=O)Nc3ccc4c(c3)S(=O)(=O)C=C4)n2c1`: the figures for the IC50 in experiment [1], in experiment [2] and in experiment [3] were 2 µM, 2.5 µM and 2.4 µM, respectively.
The matching figures for `COc1ccc(-c2ccn3c(CC(=O)Nc4ccc5c(c4)S(=O)(=O)C=C5)c(-c4ccccc4)nc3c2)cc1`: 1 µM, 0.7 µM and 0.5 µM.
The matching figures for `COc1ccn2c(CC(=O)Nc3ccc(-c4ccccc4)cc3)c(-c3ccccc3)nc2c1`: 10.5 µM, 3.2 µM and 3.5 µM.
The matching figures for `Cc1ccn2c(CC(=O)Nc3ccc4c(c3)S(=O)(=O)C=C4)c(-c3ccccc3)nc2c1`: 1.6 µM, 0.7 µM and 1 µM.
As for `COc1ccc2c(C(=O)Nc3ccc(F)cc3)cc(-c3ccccc3)nc2c1`, the IC50 in experiment [1], in experiment [2] and in experiment [3] was over 100 µM in each case.
Take `Cc1ccc(-c2nc3ccccn3c2CC(=O)Nc2ccc3c(c2)S(=O)(=O)C=C3)cc1`: the IC50 in experiment [1] was determined as 4.1 µM; in experiment [2] it was 5.5 µM; in experiment [3], 2.7 µM.
The corresponding values for `O=C(Cc1c(-c2ccccc2)nc2cc(Cl)ccn12)Nc1ccc2c(c1)S(=O)(=O)C=C2` are 1.1 µM, 0.7 µM and 1.3 µM.
The matching figures for `COc1ccc2c(C(=O)Nc3ccc(-c4ccc(C(C)C)cc4)cc3)cc(-c3ccccc3)nc2c1`: over 100 µM, over 100 µM and over 100 µM.
The matching figures for `COc1ccc2c(C(=O)Nc3ccc(-c4cc5ccccc5o4)cc3)cc(-c3ccccc3)nc2c1`: 5.3 µM, 4.3 µM and 4.8 µM.
As to `COc1ccc2c(C(=O)Nc3ccc(-c4ccc(F)cc4)cc3)cc(-c3ccccc3)nc2c1`, the IC50 came out at 11.2 µM in experiment [1], 29.9 µM in experiment [2] and 40.4 µM in experiment [3].
The matching figures for `O=C(Nc1ccc(C2CCCCC2)cc1)c1cc(-c2ccccc2)nc2ccccc12`: 10 µM, 5.8 µM and 5.9 µM.
For the compound `COc1ccn2c(CC(=O)Nc3ccc4c(c3)S(=O)(=O)C=C4)c(-c3ccc(S(C)(=O)=O)cc3)nc2c1`, the IC50 amounted to 5.8 µM in experiment [1], 5.8 µM in experiment [2] and 6.4 µM in experiment [3].
For `O=C(O)COc1ccc2c(C(=O)NCc3ccc(C4CCCCC4)cc3)cc(-c3ccccc3)nc2c1`, the IC50 in experiment [1], in experiment [2] and in experiment [3] was over 100 µM in each case.
On to `Cc1ccc(-c2nc3ccc(C)cn3c2CC(=O)Nc2ccc3c(c2)S(=O)(=O)C=C3)cc1`, for which the results for the IC50 in experiment [1], in experiment [2] and in experiment [3] were 2.1 µM, 0.9 µM and 1.8 µM, respectively.
The corresponding values for `CCCCc1ccc(NC(=O)c2cc(-c3ccccc3)nc3cc(OC)ccc23)cc1` are over 100 µM, 40.9 µM and 39.6 µM.
The matching figures for `O=C(NCc1ccc(C2CCCCC2)cc1)c1cc(-c2ccccc2)nc2ccccc12`: over 100 µM, over 100 µM and 20.1 µM.
`COc1ccc2c(C(=O)Nc3ccc(-c4ccc(SC)cc4)cc3)cc(-c3ccccc3)nc2c1`: the IC50 is 20.2 µM in experiment [1], 15.6 µM in experiment [2] and 15.6 µM in experiment [3].
`CCOC(=O)COc1ccc2c(C(=O)NCc3ccc(C4CCCCC4)cc3)cc(-c3ccccc3)nc2c1`: the IC50 in experiment [1], in experiment [2] and in experiment [3] was over 100 µM each time.
In the case of `COc1ccc2c(C(=O)Nc3ccc(-c4ccccc4)cc3)cc(-c3ccccc3)nc2c1`, the IC50 in experiment [1] came to 5.3 µM; in experiment [2], 3 µM; in experiment [3], 2.6 µM.
On to `COc1ccc2c(C(=O)NCc3ccc(C4CCCCC4)cc3)cc(-c3ccccc3)nc2c1`, for which the IC50 in experiment [1], in experiment [2] and in experiment [3] was over 100 µM throughout.
For the compound `COc1ccc2nc(-c3ccccc3)c(CC(=O)Nc3ccc4c(c3)S(=O)(=O)C=C4)n2c1`, the results for the IC50 in experiment [1], in experiment [2] and in experiment [3] were 2.1 µM, 1.2 µM and 1.7 µM, respectively.
With `COc1ccc2c(C(=O)Nc3ccc(-c4ccc5cc[nH]c5c4)cc3)cc(-c3ccccc3)nc2c1`, the IC50 in experiment [1], in experiment [2] and in experiment [3] was over 100 µM each time.
On to `COc1ccc(-c2ccc(NC(=O)c3cc(-c4ccccc4)nc4cc(OC)ccc34)cc2)cc1`, for which the IC50 in experiment [1] is 21 µM; in experiment [2], 4.9 µM; in experiment [3], 5.8 µM.
Take `O=C(Cc1c(-c2ccccc2)nc2cc(Br)ccn12)Nc1ccc2c(c1)S(=O)(=O)C=C2`: the values for the IC50 in experiment [1], in experiment [2] and in experiment [3] were 0.9 µM, 0.8 µM and 0.9 µM, respectively.
Turning to `COc1ccn2c(CC(=O)Nc3ccc(C4CCCCC4)cc3)c(-c3ccccc3)nc2c1`, the IC50 in experiment [1] came to 5.4 µM; in experiment [2], 5.6 µM; in experiment [3], 4.7 µM.
The corresponding values for `COc1ccc2c(C(=O)Nc3ccc(C)cc3)cc(-c3ccccc3)nc2c1` are over 100 µM, over 100 µM and over 100 µM.
The matching figures for `COc1ccn2c(CC(=O)Nc3ccc4c(c3)S(=O)(=O)C=C4)c(-c3ccc4ccccc4c3)nc2c1`: 1.4 µM, 1 µM and 1.5 µM.
The matching figures for `CCOC(=O)COc1ccc2c(C(=O)Nc3ccc(C4CCCCC4)cc3)cc(-c3ccccc3)nc2c1`: over 100 µM, over 100 µM and over 100 µM.
As for `O=C(NCc1ccc(C2CCCCC2)cc1)c1cc(-c2ccccc2)nc2cc(O)ccc12`, the IC50 in experiment [1] worked out at 50 µM; in experiment [2], 16.6 µM; in experiment [3] it was 14.6 µM.
Regarding `COc1ccn2c(C(=O)Nc3ccc(C4CCCCC4)cc3)c(-c3ccccc3)nc2c1`, the IC50 in experiment [1], in experiment [2] and in experiment [3] was over 100 µM throughout.
As to `O=C(Cc1cnc2ccccn12)Nc1ccc2c(c1)S(=O)(=O)C=C2`, the IC50 in experiment [1] came out at 20.2 µM; in experiment [2], 23.4 µM; in experiment [3], 22.5 µM.
The corresponding values for `O=C(Nc1ccc(C2CCCCC2)cc1)c1cc(-c2ccccc2)nc2cc(O)ccc12` are over 100 µM, over 100 µM and over 100 µM.
`COc1ccn2c(CC(=O)Nc3ccc4c(c3)S(=O)(=O)C=C4)c(-c3cccs3)nc2c1`: the figures for the IC50 in experiment [1], in experiment [2] and in experiment [3] were 1.4 µM, 1.1 µM and 1.3 µM, respectively.
The corresponding values for `COc1ccc2c(C(=O)Nc3ccc(-c4ccco4)cc3)cc(-c3ccccc3)nc2c1` are 10.3 µM, 5.5 µM and 2.1 µM.
